Reference: patent US10472395B2, “Cyclic peptide analogs and conjugates thereof” (Sirenas LLC, priority 2015, dated 2019)
Where two headings read alike, the source gives them in different places. Numbered stars: 1 amine (or outer) side, 2 acyl side, 3 side chain; on linkers, the order of the positions; unused ones are H or OH. Bridge positions count the residues as written; N and C are the ends. Square brackets hold non-standard residues; d marks the D form. Peptide text beside a SMILES is read from it. ξ: configuration not given here. X4 = C/C=C(\C)[C@@H](N[*:1])[C@@H](C)[C@H](O)C/C=C(\C)C(=O)O[C@H](CC(C)C)C(=O)[*:2]; X10 = C/C(=C\CCCCO[*:2])C(=O)[*:1]; X11 = C/C(=C\CCO[*:2])C(=O)[*:1]; X9 = C/C(=C\CCCO[*:2])C(=O)[*:1]; dNMeF = CN[C@H](Cc1ccccc1)C(=O)O; Ile(3ξ) = CCC(C)[C@H](N)C(=O)O; dHica = CC(C)C[C@@H](O)C(=O)O; dHiv = CC(C)[C@@H](O)C(=O)O; NMeA = CN[C@@H](C)C(=O)O; dAbu = CC[C@@H](N)C(=O)O; dNMeA = CN[C@H](C)C(=O)O; Abu = CC[C@H](N)C(=O)O; Aib = CC(C)(N)C(=O)O; Sar = CNCC(=O)O

System: BT-474 human mammary gland ductal carcinoma cells
Assay: Inhibitory response of test compounds against BT-474 cells (Cell Titer-Glo, 72 h)
Assay type: cell-based
Description: BT-474 human mammary gland ductal carcinoma cells were seeded in a clear polystyrene 96-well microculture plate (Corning® Costar® 96-well flat bottom plate, Cat.#3997) in a total volume of 90 μL/well. After 24 hours of incubation in a humidified incubator at 37° C. with 5% CO2 and 95% air, 10 μL of 10×, serially diluted test agents in growth medium were added to each well (10 pt dose response curve, highest concentration 10 μM of test agent). After 72 hours of culture in a humidified incubator at 37° C., in an atmosphere of 5% CO2 and 95% air, the plated cells and Cell Titer-Glo® (Promega G7571) reagents were brought to room temperature to equilibrate for 30 minutes. 100 μL of Cell Titer-Glo® reagent was added to each well. The plate was shaken for two minutes and then left to equilibrate for ten minutes. The media/Cell Titer-Glo® reagent was transferred to a white polystyrene 96-well microculture plate (Corning® Costar® 96-well flat bottom plate, Cat.#3917) before reading luminescence on a Tecan GENios microplate reader.
Percent inhibition of cell growth was calculated relative to untreated control wells. The IC50 value for the test agents was determined using Prism 6.05 by curve-fitting of the data using the following four parameter-logistic equation:
[formula] where Top is the maximal % of control absorbance, Bottom is the minimal % of control absorbance at the highest agent concentration, Y is the % of control absorbance, X is the agent concentration, IC50 is the concentration of agent that inhibits cell growth by 50% compared to the control cells, and n is the slope of the curve.

Row | Structure (SMILES) | IC50 (Homo sapiens) | IC50 | IC50 (Homo sapiens, 72 h, Cell Titer-Glo, highest concentration 10 μM)
1 | C/C=C(\C)[C@H]1OC(=O)[C@@H](C)NC(=O)[C@H]([C@H](C)CC)NC(=O)CN(C)C(=O)[C@@H](Cc2ccc(Cl)cc2)N(C)C(=O)[C@H](C)NC(=O)[C@@H](CC(C)C)OC(=O)/C(C)=C/C[C@H](OCSC)[C@@H]1C [Compound 61] | < 0.02 µM | – | –
2 | CCC(C)[C@@H]1NC(=O)CN(C)C(=O)[C@@H](Cc2ccccc2)N(C)C(=O)[C@H](C)NC(=O)[C@@H](CC(C)C)OC(=O)/C(C)=C/CCCCOC(=O)[C@@H](C)N(C)C1=O (stereo partly drawn) [Compound 14] ([dHica]A[dNMeF][Sar][Ile(3ξ)][dNMeA]; linker N-C via X10) | > 10 µM | – | –
3 | CCC(C)[C@@H]1NC(=O)CN(C)C(=O)[C@@H](Cc2ccccc2)N(C)C(=O)[C@H](C)NC(=O)[C@@H](CC(C)C)OC(=O)/C(C)=C/CCCCOC(=O)CNC1=O (stereo partly drawn) [Compound 79] ([dHica]A[dNMeF][Sar][Ile(3ξ)]G; linker N-C via X10) | > 10 µM | – | –
4 | CCC(C)[C@@H]1NC(=O)CN(C)C(=O)[C@@H](Cc2ccccc2)N(C)C(=O)[C@H](C)NC(=O)[C@@H](C(C)C)OC(=O)/C(C)=C/CCCCOC(=O)C(C)(C)NC1=O (stereo partly drawn) [Compound 81] ([dHiv]A[dNMeF][Sar][Ile(3ξ)][Aib]; linker N-C via X10) | 0.2 to 10 µM | – | –
5 | CCC(C)[C@@H]1NC(=O)CN(C)C(=O)[C@@H](Cc2ccccc2)N(C)C(=O)[C@H](C)NC(=O)[C@@H](CC(C)C)OC(=O)/C(C)=C/CCCOC(=O)[C@H](C)NC1=O (stereo partly drawn) [Compound 4] ([dHica]A[dNMeF][Sar][Ile(3ξ)]A; linker N-C via X9) | > 10 µM | – | –
6 | CCC(C)[C@@H]1NC(=O)CN(C)C(=O)[C@@H](Cc2ccccc2)N(C)C(=O)[C@H](C)NC(=O)[C@@H](CC(C)C)OC(=O)/C(C)=C/CCOC(=O)[C@@H](C)NC1=O (stereo partly drawn) [Compound 12] ([dHica]A[dNMeF][Sar][Ile(3ξ)][dA]; linker N-C via X11) | > 10 µM | – | –
7 | CCC(C)[C@@H]1NC(=O)CN(C)C(=O)[C@@H](Cc2ccccc2)N(C)C(=O)[C@H](C)NC(=O)[C@@H](C(C)C)OC(=O)/C(C)=C/CCCCOC(=O)[C@@H](CC)NC1=O (stereo partly drawn) [Compound 80] ([dHiv]A[dNMeF][Sar][Ile(3ξ)][dAbu]; linker N-C via X10) | > 10 µM | – | –
8 | CCC(C)[C@@H]1NC(=O)CN(C)C(=O)[C@@H](Cc2ccccc2)N(C)C(=O)[C@H](C)NC(=O)[C@@H](CC(C)C)OC(=O)/C(C)=C/CCCOC(=O)[C@@H](C)NC1=O (stereo partly drawn) [Compound 5] ([dHica]A[dNMeF][Sar][Ile(3ξ)][dA]; linker N-C via X9) | > 10 µM | – | –
9 | CCC(C)[C@@H]1NC(=O)CN(C)C(=O)[C@@H](Cc2ccccc2)N(C)C(=O)[C@H](C)NC(=O)[C@@H](CC(C)C)OC(=O)/C(C)=C/CCCCOC(=O)[C@@H](CC)NC1=O (stereo partly drawn) [Compound 77] ([dHica]A[dNMeF][Sar][Ile(3ξ)][dAbu]; linker N-C via X10) | > 10 µM | – | –
10 | CCC(C)[C@@H]1NC(=O)CN(C)C(=O)[C@@H](Cc2ccccc2)N(C)C(=O)[C@H](C)NC(=O)[C@@H](CC(C)C)OC(=O)/C(C)=C/CCCOC(=O)[C@H](C)N(C)C1=O (stereo partly drawn) [Compound 9] ([dHica]A[dNMeF][Sar][Ile(3ξ)][NMeA]; linker N-C via X9) | > 10 µM | – | –
11 | CCC(C)[C@@H]1NC(=O)CN(C)C(=O)[C@@H](Cc2ccccc2)N(C)C(=O)[C@H](C)NC(=O)[C@@H](CC(C)C)OC(=O)/C(C)=C/CCCCOC(=O)[C@H](CC)NC1=O (stereo partly drawn) [Compound 78] ([dHica]A[dNMeF][Sar][Ile(3ξ)][Abu]; linker N-C via X10) | 0.2 to 10 µM | – | –
12 | C/C=C(\C)[C@H]1OC(=O)[C@@H](C)NC(=O)[C@H]([C@H](C)CC)NC(=O)CN(C)C(=O)[C@@H](Cc2ccccc2)N(C)C(=O)[C@H](C)NC(=O)[C@@H](CC(C)C)OC(=O)/C(C)=C/C[C@H](OC(=O)NCCCOCCOCCOCCCNC(=O)c2ccc(/C(C)=N\NC(=O)CCCCCN3C(=O)C=CC3=O)cc2)[C@@H]1C [Compound L13] | – | 0.02 to 0.2 µM | –
13 | C/C=C(\C)[C@H]1OC(=O)[C@@H](C)NC(=O)[C@H]([C@H](C)CC)NC(=O)CN(C)C(=O)[C@@H](Cc2ccc(Cl)cc2)N(C)C(=O)[C@H](CCCCNC(=O)c2ccc(C(C)=O)cc2)NC(=O)[C@@H](CC(C)C)OC(=O)/C(C)=C/CC[C@@H]1C [Compound 121] | 0.2 to 10 µM | – | –
14 | C/C=C(\C)[C@H]1NC(=O)[C@@H](C)NC(=O)[C@H](C(C)CC)NC(=O)CN(C)C(=O)[C@@H](Cc2ccccc2)N(C)C(=O)[C@H](C)NC(=O)[C@@H](CC(C)C)OC(=O)/C(C)=C/C[C@@H](O)[C@@H]1C (stereo partly drawn) [Compound 19] (cyclo(A[dNMeF][Sar][Ile(3ξ)][dA][X4])) | > 10 µM | – | > 10 µM
